pEC50: −log10 of the molar value.
What was measured:
Assay type in all cases: cell-based
[1] = target: Protein cereblon/B-cell lymphoma 6 protein (Homo sapiens) (UniProt Q96SW2+P41182); test: PROTAC activity at CRBN/N-terminal HiBiT tagged BCL6 in human HT-1080 cells assessed as induction of BCL6 degradation by measuring minimum efficacy incubated for 5 hrs by NANO-GLO HiBiT Lytic reagent based luminescence plate reader analysis
[2] = target: Protein cereblon/B-cell lymphoma 6 protein (Homo sapiens, UniProt P41182+Q96SW2); test: PROTAC activity at CRBN/N-terminal HiBiT tagged BCL6 in human HT-1080 cells assessed as induction of BCL6 degradation incubated for 5 hrs by NANO-GLO HiBiT Lytic reagent based luminescence plate reader analysis
Protein cereblon/B-cell lymphoma 6 protein, sequence (Q96SW2 whole entry, looked up, other chains not shown): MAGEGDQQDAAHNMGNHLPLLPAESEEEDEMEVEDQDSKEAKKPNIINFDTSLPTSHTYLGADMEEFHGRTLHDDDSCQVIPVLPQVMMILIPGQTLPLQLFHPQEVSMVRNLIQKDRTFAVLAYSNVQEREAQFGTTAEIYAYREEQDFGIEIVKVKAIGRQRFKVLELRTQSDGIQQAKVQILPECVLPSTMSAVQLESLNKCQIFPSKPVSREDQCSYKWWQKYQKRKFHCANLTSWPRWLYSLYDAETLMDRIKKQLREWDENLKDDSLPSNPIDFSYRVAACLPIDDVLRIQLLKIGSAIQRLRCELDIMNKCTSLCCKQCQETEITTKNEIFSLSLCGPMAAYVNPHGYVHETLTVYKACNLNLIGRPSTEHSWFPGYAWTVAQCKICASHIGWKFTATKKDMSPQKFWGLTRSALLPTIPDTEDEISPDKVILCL

[3] = target: T1, Protein cereblon/SWI/SNF-related matrix-associated actin-dependent regulator of chromatin subfamily A member 2 (Homo sapiens, UniProt P51531+Q96SW2); test: PROTAC activity at CRBN/N-terminal HiBiT-tagged SMARCA2 in human A549 cells assessed as induction of SMARCA2 degradation incubated for 6 hrs by Nano-Glo HiBiT Lytic reagent based luminescence plate reader analysis
T1 sequence (P51531 whole entry): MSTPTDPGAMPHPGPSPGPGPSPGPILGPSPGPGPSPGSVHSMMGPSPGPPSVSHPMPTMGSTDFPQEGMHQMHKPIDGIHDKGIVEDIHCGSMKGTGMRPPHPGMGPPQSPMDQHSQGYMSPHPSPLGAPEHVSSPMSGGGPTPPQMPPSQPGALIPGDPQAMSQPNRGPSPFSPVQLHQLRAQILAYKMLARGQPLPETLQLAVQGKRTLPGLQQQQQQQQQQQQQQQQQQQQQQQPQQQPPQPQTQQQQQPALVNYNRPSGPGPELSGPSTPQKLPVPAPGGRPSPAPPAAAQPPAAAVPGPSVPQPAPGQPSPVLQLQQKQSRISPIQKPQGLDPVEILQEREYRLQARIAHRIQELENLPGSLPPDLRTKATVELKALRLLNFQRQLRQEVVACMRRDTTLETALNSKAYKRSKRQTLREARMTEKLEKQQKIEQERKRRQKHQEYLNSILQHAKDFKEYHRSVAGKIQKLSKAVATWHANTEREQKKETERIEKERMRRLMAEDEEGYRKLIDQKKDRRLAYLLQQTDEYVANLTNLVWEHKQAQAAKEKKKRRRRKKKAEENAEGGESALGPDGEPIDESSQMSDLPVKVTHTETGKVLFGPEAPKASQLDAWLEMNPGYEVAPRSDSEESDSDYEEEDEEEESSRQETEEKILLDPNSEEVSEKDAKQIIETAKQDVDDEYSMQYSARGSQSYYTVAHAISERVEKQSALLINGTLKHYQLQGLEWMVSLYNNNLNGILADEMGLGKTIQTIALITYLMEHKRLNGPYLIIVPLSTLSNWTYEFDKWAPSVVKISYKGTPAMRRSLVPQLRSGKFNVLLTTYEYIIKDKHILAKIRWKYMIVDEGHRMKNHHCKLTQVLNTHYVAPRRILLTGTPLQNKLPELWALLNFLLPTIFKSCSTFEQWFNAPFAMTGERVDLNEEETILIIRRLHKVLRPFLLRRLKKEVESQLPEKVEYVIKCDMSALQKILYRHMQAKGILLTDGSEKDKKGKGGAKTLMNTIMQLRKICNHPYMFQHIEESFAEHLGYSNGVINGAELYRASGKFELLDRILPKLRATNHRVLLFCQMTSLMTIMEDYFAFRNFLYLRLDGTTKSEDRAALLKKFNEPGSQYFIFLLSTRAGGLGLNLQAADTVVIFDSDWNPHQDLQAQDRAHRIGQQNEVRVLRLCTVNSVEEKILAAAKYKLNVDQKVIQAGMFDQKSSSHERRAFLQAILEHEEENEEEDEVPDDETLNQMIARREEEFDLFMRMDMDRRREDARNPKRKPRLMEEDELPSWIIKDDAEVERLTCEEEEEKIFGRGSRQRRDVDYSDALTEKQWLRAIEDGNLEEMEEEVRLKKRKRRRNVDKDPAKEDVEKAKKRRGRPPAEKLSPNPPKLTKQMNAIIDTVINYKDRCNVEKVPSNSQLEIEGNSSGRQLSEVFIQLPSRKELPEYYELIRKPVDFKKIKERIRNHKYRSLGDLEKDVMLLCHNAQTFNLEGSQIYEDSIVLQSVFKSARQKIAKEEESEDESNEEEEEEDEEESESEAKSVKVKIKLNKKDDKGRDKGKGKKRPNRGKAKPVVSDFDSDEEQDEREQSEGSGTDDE
T1 sequence (Q96SW2 whole entry): as the sequence (Q96SW2 whole entry, looked up, other chains not shown) above

[4] = target: T1, Protein cereblon/SWI/SNF-related matrix-associated actin-dependent regulator of chromatin subfamily A member 2; test: PROTAC activity at CRBN/N-terminal HiBiT-tagged SMARCA2 in human A549 cells assessed as induction of SMARCA2 degradation by measuring maximal efficacy incubated for 6 hrs by Nano-Glo HiBiT Lytic reagent based luminescence plate reader analysis relative to control

Protein cereblon/B-cell lymphoma 6 protein (Homo sapiens), sequence (Q96SW2 whole entry, looked up, other chains not shown): as above

SMILES | Emin [1] | DC50 [3] | also measured
C[C@H](C1CCN(c2ncc(Cl)c(Nc3ccc4c(c3)c3c(c(=O)n4C)OCC(F)(F)[C@H](C4CC4)N3)n2)CC1)C1CCN(c2cccc3c(C4CCC(=O)NC4=O)nn(C)c23)CC1 (stereo not given in full) | < 30% | – | pEC50 [2]: ≥ 7.60
C[C@H]1CN(c2ncc(Cl)c(Nc3ccc4c(c3)c3c(c(=O)n4C)OCC(F)(F)[C@H](C4CC4)N3)n2)CCN1CC1CCN(c2cccc3c(C4CCC(=O)NC4=O)nn(C)c23)CC1 (stereo not given in full) | < 30% | – | –
Cn1nc(C2CCC(=O)NC2=O)c2cccc(N3CCN(CC4CCN(c5ncc(Cl)c(Nc6ccc7c(c6)c6c(c(=O)n7C)OCC(F)(F)[C@H](C7CC7)N6)n5)CC4)CC3)c21 (stereo not given in full) | < 30% | – | –
Cn1c(=O)c2c(c3cc(Nc4nc(N5CCN(CC6CCN(c7cccc8c7C(=O)N(C7CCC(=O)NC7=O)C8=O)CC6)CC5)ncc4Cl)ccc31)N[C@@H](C1CC1)C(F)(F)CO2 (stereo not given in full) | < 30% | – | –

Now from value to compound, other results behind:

Emin [1] | DC50 [3] | SMILES | also measured
– | 13.1 nM | CN(c1cccc(N2CCC(O)(CC(=O)N3CCC(Oc4cccc(N5[C@@H]6COC[C@H]5CC(c5cc(-c7ccccc7O)nnc5N)C6)c4)CC3)CC2)c1)C1CCC(=O)NC1=O (stereo not given in full) | –
– | 13 nM | Nc1nnc(-c2ccccc2O)cc1C1C[C@H]2COC[C@@H](C1)N2c1cccc(OC2CCN(C(=O)CCC3CN(c4cccc5c4CCN5[C@@H]4CCC(=O)NC4=O)C3)CC2)c1 (stereo not given in full) | –
– | 9.47 nM | CN(C(=O)N1CCC(Oc2cccc(N3[C@@H]4COC[C@H]3CC(c3cc(-c5ccccc5O)nnc3N)C4)c2)CC1)C1CCN(c2cccc3c2CCN3[C@@H]2CCC(=O)NC2=O)CC1 (stereo not given in full) | –
– | 5.8 nM | Nc1nnc(-c2ccccc2O)cc1C1C[C@H]2COC[C@@H](C1)N2c1cccc(OC2CCN(C(=O)CC3(O)CCN(c4cccc5c4CCN5C4CCC(=O)NC4=O)CC3)CC2)c1 (stereo not given in full) | Emax [4]: 22.9%

— ChEMBL document CHEMBL5634188, “Expanding TPD Horizons: Innovative Strategies Targeting BCL6 and SMARCA2” (ACS Med Chem Lett, 2024)
